In the supplement of paper PMC12463676, “Small-molecule dissolution of stress granules by redox modulation benefits ALS models” (Nature Chemical Biology, 2025):

How the values were obtained:
potassium arsenate = compound: O=[As]([O-])(O)O.[K+] [potassium arsenate]; assay: thermal stability z-score vs DMSO; higher = more thermally stabilized by treatment; settings: HeLa; arsenate concentration 1 mM
Description: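 Cellular thermal proteome profiling in HeLa cells treated with 1 mM arsenate for 1 h (DMSO pretreatment), heated to ten temperatures (37-66.3 °C). Soluble protein was quantified by TMT mass spectrometry relative to DMSO controls; the thermal stability score was transformed to a z-score; mean of n = 3 experiments.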

lipoamide = compound: NC(=O)CCCCC1CCSS1 [lipoamide]; assay: as above; settings: HeLa, lipoamide concentration 100 µM
Description: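 Cellular thermal proteome profiling in HeLa cells. Cells were treated with 100 µM lipoamide for 1 h, with or without 1 mM arsenate for a further 1 h, then heated to ten temperatures (37-66.3 °C), and soluble protein was quantified by TMT mass spectrometry relative to 0.1% DMSO controls. The thermal stability score (sum of log2 fold changes minus the abundance score) was transformed to a z-score; mean of n = 3 experiments.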

[1] = arsenate co-treatment: 1 mM arsenate 1 h
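Further: each temperature applied for 3 min, abundance score taken as mean log2 fold change at the two lowest temperatures, z-score obtained by mean subtraction and division by SD.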

Target: WDHD1 (UniProt O75717)
- thermal stability z-score (potassium arsenate): -0.982
- thermal stability z-score (lipoamide; [1]): 1.28
- thermal stability z-score (lipoamide; arsenate co-treatment: none): 1.01

Target: RAB33B (UniProt Q9H082)
- thermal stability z-score (potassium arsenate): 0.955
- thermal stability z-score (lipoamide; [1]): 0.43
- thermal stability z-score (lipoamide; arsenate co-treatment: none): 0.463

Target: JMJD6 (UniProt Q6NYC1)
- thermal stability z-score (potassium arsenate): 0.606
- thermal stability z-score (lipoamide; [1]): -0.363
- thermal stability z-score (lipoamide; arsenate co-treatment: none): 0.15

Target: USP3 (UniProt Q9Y6I4)
- thermal stability z-score (potassium arsenate): -2.27
- thermal stability z-score (lipoamide; [1]): 0.0204
- thermal stability z-score (lipoamide; arsenate co-treatment: none): 0.0221

Target: CSTF3 (UniProt Q12996)
- thermal stability z-score (potassium arsenate): -0.661
- thermal stability z-score (lipoamide; [1]): 0.159
- thermal stability z-score (lipoamide; arsenate co-treatment: none): 0.0381

Target: USP4 (UniProt Q13107)
- thermal stability z-score (potassium arsenate): -0.141
- thermal stability z-score (lipoamide; [1]): -0.209
- thermal stability z-score (lipoamide; arsenate co-treatment: none): -0.11

Target: RPIA (UniProt P49247)
- thermal stability z-score (potassium arsenate): 0.27
- thermal stability z-score (lipoamide; [1]): 0.704
- thermal stability z-score (lipoamide; arsenate co-treatment: none): 0.8

Target: LTN1 (UniProt O94822)
- thermal stability z-score (potassium arsenate): 0.0334
- thermal stability z-score (lipoamide; [1]): 0.0185
- thermal stability z-score (lipoamide; arsenate co-treatment: none): 0.0878

Target: GPAM (UniProt Q9HCL2)
- thermal stability z-score (potassium arsenate): -0.448
- thermal stability z-score (lipoamide; [1]): 1.02
- thermal stability z-score (lipoamide; arsenate co-treatment: none): -0.15

Target: SPATS2L (UniProt Q9NUQ6)
- thermal stability z-score (potassium arsenate): -0.0325
- thermal stability z-score (lipoamide; [1]): 0.296
- thermal stability z-score (lipoamide; arsenate co-treatment: none): 0.638

Target: NCEH1 (UniProt Q6PIU2)
- thermal stability z-score (potassium arsenate): -0.34
- thermal stability z-score (lipoamide; [1]): -0.5
- thermal stability z-score (lipoamide; arsenate co-treatment: none): -0.83

Target: ADPRHL2 (UniProt Q9NX46)
Sequence of UniProt Q9NX46 (Q9NX46 whole entry): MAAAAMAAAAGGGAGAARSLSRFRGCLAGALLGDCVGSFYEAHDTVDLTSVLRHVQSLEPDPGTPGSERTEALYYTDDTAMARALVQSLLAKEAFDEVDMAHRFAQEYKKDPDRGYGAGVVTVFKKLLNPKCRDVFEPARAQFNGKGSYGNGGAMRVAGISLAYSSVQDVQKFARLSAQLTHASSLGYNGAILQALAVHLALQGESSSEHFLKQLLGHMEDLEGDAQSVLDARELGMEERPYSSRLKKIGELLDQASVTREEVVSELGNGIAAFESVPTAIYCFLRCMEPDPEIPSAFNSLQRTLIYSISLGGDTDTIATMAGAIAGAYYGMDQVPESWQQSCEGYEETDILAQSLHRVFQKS
- thermal stability z-score (potassium arsenate): -0.268
- thermal stability z-score (lipoamide; [1]): 0.435
- thermal stability z-score (lipoamide; arsenate co-treatment: none): -0.109

Target: STT3A (UniProt P46977)
- thermal stability z-score (potassium arsenate): -0.218
- thermal stability z-score (lipoamide; [1]): -2.6
- thermal stability z-score (lipoamide; arsenate co-treatment: none): -1.98

Target: DNAJC17 (UniProt Q9NVM6)
- thermal stability z-score (potassium arsenate): -0.299
- thermal stability z-score (lipoamide; [1]): 0.0174
- thermal stability z-score (lipoamide; arsenate co-treatment: none): 0.0121

Target: MICAL3 (UniProt Q7RTP6)
- thermal stability z-score (potassium arsenate): 0.0242
- thermal stability z-score (lipoamide; [1]): 0.231
- thermal stability z-score (lipoamide; arsenate co-treatment: none): 0.334

Target: CASC4 (UniProt Q6P4E1)
- thermal stability z-score (potassium arsenate): 0.0247
- thermal stability z-score (lipoamide; [1]): 0.245
- thermal stability z-score (lipoamide; arsenate co-treatment: none): 0.111

Target: SETD1A (UniProt O15047)
- thermal stability z-score (potassium arsenate): -0.413
- thermal stability z-score (lipoamide; [1]): 0.233
- thermal stability z-score (lipoamide; arsenate co-treatment: none): -0.516

Target: DNAJB4 (UniProt Q9UDY4)
- thermal stability z-score (potassium arsenate): -0.708
- thermal stability z-score (lipoamide; [1]): -0.368
- thermal stability z-score (lipoamide; arsenate co-treatment: none): -0.146

Target: ANXA2 (UniProt P07355)
- thermal stability z-score (potassium arsenate): 0.066
- thermal stability z-score (lipoamide; [1]): 1.59
- thermal stability z-score (lipoamide; arsenate co-treatment: none): 1.79

Target: ZPR1 (UniProt O75312)
- thermal stability z-score (potassium arsenate): -1.09
- thermal stability z-score (lipoamide; [1]): 0.753
- thermal stability z-score (lipoamide; arsenate co-treatment: none): -0.187

Target: BACH1 (UniProt O14867)
- thermal stability z-score (potassium arsenate): 0.169
- thermal stability z-score (lipoamide; [1]): -0.551
- thermal stability z-score (lipoamide; arsenate co-treatment: none): -0.333

Target: LMNB1 (UniProt P20700)
Sequence of UniProt P20700 (P20700 whole entry): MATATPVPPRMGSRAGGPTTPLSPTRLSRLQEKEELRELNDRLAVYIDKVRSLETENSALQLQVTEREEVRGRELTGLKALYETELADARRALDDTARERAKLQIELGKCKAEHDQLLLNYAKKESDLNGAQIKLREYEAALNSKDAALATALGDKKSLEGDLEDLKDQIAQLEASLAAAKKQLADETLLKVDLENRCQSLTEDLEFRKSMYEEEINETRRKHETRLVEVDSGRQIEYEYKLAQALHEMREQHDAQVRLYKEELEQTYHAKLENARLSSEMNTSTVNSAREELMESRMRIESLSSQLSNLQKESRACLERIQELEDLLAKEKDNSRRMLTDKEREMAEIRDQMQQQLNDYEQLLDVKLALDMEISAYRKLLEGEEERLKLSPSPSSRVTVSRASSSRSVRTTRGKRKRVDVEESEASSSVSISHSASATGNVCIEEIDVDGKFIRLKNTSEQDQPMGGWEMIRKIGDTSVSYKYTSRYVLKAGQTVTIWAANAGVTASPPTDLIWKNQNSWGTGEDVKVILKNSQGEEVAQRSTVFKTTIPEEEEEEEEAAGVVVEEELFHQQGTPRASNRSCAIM
- thermal stability z-score (potassium arsenate): 0.742
- thermal stability z-score (lipoamide; [1]): 2.11
- thermal stability z-score (lipoamide; arsenate co-treatment: none): -0.38

Target: LRR1 (UniProt Q96L50)
- thermal stability z-score (potassium arsenate): -0.256
- thermal stability z-score (lipoamide; [1]): 0.148
- thermal stability z-score (lipoamide; arsenate co-treatment: none): 0.192

Target: PAFAH1B2 (UniProt P68402)
Sequence of UniProt P68402 (P68402 whole entry): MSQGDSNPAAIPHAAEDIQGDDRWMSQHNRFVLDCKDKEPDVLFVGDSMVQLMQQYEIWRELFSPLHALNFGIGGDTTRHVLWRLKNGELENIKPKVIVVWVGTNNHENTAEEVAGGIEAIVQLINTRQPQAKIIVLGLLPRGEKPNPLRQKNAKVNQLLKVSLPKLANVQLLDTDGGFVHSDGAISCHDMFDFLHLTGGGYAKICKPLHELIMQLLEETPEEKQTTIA
- thermal stability z-score (potassium arsenate): -0.469
- thermal stability z-score (lipoamide; [1]): 0.526
- thermal stability z-score (lipoamide; arsenate co-treatment: none): 0.289

Target: SLC2A1 (UniProt P11166)
- thermal stability z-score (potassium arsenate): 0.124
- thermal stability z-score (lipoamide; [1]): 0.651
- thermal stability z-score (lipoamide; arsenate co-treatment: none): 0.659

Target: APLP2 (UniProt Q06481)
- thermal stability z-score (potassium arsenate): -0.251
- thermal stability z-score (lipoamide; [1]): -2.13
- thermal stability z-score (lipoamide; arsenate co-treatment: none): -1.76

Target: DHCR24 (UniProt Q15392)
- thermal stability z-score (potassium arsenate): 0.726
- thermal stability z-score (lipoamide; [1]): 0.408
- thermal stability z-score (lipoamide; arsenate co-treatment: none): 0.354

Target: FN3KRP (UniProt Q9HA64)
Sequence of UniProt Q9HA64 (Q9HA64 whole entry): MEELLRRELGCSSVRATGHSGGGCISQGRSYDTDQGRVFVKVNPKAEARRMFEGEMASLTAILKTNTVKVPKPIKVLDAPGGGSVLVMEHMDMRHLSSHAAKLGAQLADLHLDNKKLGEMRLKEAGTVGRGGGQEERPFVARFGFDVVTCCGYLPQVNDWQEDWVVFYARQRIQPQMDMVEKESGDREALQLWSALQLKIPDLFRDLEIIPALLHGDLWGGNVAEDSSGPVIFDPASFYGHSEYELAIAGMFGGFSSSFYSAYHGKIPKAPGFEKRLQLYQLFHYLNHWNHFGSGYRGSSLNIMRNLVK
- thermal stability z-score (potassium arsenate): 0.155
- thermal stability z-score (lipoamide; [1]): -0.401
- thermal stability z-score (lipoamide; arsenate co-treatment: none): 0.365

Target: SARAF (UniProt Q96BY9)
- thermal stability z-score (potassium arsenate): 0.00539
- thermal stability z-score (lipoamide; [1]): -0.355
- thermal stability z-score (lipoamide; arsenate co-treatment: none): -0.0205

Target: SRSF3 (UniProt P84103)
Sequence of UniProt P84103 (P84103 whole entry): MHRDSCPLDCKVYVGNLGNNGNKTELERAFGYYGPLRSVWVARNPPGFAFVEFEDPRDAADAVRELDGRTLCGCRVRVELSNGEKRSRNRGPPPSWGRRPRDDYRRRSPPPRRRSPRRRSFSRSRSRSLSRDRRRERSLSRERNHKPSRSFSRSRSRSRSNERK
- thermal stability z-score (potassium arsenate): -0.485
- thermal stability z-score (lipoamide; [1]): 1.69
- thermal stability z-score (lipoamide; arsenate co-treatment: none): 0.987

Target: GIT1 (UniProt Q9Y2X7)
- thermal stability z-score (potassium arsenate): -0.368
- thermal stability z-score (lipoamide; [1]): 0.346
- thermal stability z-score (lipoamide; arsenate co-treatment: none): -0.311

Target: STOM (UniProt P27105)
Sequence of UniProt P27105 (P27105 whole entry): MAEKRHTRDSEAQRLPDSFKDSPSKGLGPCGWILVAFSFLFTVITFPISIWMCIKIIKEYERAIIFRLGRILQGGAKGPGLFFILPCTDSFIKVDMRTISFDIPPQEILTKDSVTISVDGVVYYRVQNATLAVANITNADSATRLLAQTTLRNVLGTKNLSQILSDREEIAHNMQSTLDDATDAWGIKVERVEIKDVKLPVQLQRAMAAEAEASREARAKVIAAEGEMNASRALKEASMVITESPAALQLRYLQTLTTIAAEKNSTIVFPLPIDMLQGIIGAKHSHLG
- thermal stability z-score (potassium arsenate): 0.0471
- thermal stability z-score (lipoamide; [1]): -0.123
- thermal stability z-score (lipoamide; arsenate co-treatment: none): 0.354

Target: MRS2 (UniProt Q9HD23)
Sequence of UniProt Q9HD23 (Q9HD23 whole entry): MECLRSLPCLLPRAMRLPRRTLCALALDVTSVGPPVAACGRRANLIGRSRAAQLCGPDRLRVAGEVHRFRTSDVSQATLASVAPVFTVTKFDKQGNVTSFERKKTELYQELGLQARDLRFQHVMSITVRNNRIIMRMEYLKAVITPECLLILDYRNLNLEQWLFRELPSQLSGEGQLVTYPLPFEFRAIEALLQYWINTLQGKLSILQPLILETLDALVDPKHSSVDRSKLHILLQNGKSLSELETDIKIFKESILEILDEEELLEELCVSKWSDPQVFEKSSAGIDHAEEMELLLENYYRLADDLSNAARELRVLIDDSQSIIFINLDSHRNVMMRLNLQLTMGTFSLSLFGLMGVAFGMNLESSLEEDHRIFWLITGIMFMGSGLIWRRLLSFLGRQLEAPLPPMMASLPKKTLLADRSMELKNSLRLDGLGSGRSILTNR
- thermal stability z-score (potassium arsenate): -1.27
- thermal stability z-score (lipoamide; [1]): 0.937
- thermal stability z-score (lipoamide; arsenate co-treatment: none): -0.861

Target: KAT8 (UniProt Q9H7Z6)
- thermal stability z-score (potassium arsenate): -0.509
- thermal stability z-score (lipoamide; [1]): 0.773
- thermal stability z-score (lipoamide; arsenate co-treatment: none): -0.409

Target: EMC1 (UniProt Q8N766)
- thermal stability z-score (potassium arsenate): 0.695
- thermal stability z-score (lipoamide; [1]): -2.01
- thermal stability z-score (lipoamide; arsenate co-treatment: none): -1.43

Target: FAM105A (UniProt Q9NUU6)
- thermal stability z-score (potassium arsenate): 0.337
- thermal stability z-score (lipoamide; [1]): -0.00141
- thermal stability z-score (lipoamide; arsenate co-treatment: none): -0.0135

Target: HSF1 (UniProt Q00613)
- thermal stability z-score (potassium arsenate): -0.185
- thermal stability z-score (lipoamide; [1]): -0.332
- thermal stability z-score (lipoamide; arsenate co-treatment: none): -0.199

Target: TALDO1 (UniProt P37837)
- thermal stability z-score (potassium arsenate): 0.839
- thermal stability z-score (lipoamide; [1]): 0.471
- thermal stability z-score (lipoamide; arsenate co-treatment: none): 0.557

Target: OARD1 (UniProt Q9Y530)
- thermal stability z-score (potassium arsenate): -0.793
- thermal stability z-score (lipoamide; [1]): 0.407
- thermal stability z-score (lipoamide; arsenate co-treatment: none): 0.708

Target: MAP3K7 (UniProt O43318)
- thermal stability z-score (potassium arsenate): 0.066
- thermal stability z-score (lipoamide; [1]): 0.164
- thermal stability z-score (lipoamide; arsenate co-treatment: none): 0.123

Target: CCDC97 (UniProt Q96F63)
- thermal stability z-score (potassium arsenate): -0.925
- thermal stability z-score (lipoamide; [1]): -0.00687
- thermal stability z-score (lipoamide; arsenate co-treatment: none): 0.225

Target: ZCCHC6 (UniProt Q5VYS8)
- thermal stability z-score (potassium arsenate): -0.0705
- thermal stability z-score (lipoamide; [1]): -0.043
- thermal stability z-score (lipoamide; arsenate co-treatment: none): -0.0119

Target: PLA2G12A (UniProt Q9BZM1)
- thermal stability z-score (potassium arsenate): -0.111
- thermal stability z-score (lipoamide; [1]): -0.0117
- thermal stability z-score (lipoamide; arsenate co-treatment: none): -0.134

Target: PSMD4 (UniProt P55036)
- thermal stability z-score (potassium arsenate): 0.383
- thermal stability z-score (lipoamide; [1]): 0.377
- thermal stability z-score (lipoamide; arsenate co-treatment: none): 0.242

Target: RAD23A (UniProt P54725)
- thermal stability z-score (potassium arsenate): -0.142
- thermal stability z-score (lipoamide; [1]): 0.0472
- thermal stability z-score (lipoamide; arsenate co-treatment: none): 0.234

Target: TMEM65 (UniProt Q6PI78)
- thermal stability z-score (potassium arsenate): 0.128
- thermal stability z-score (lipoamide; [1]): -0.379
- thermal stability z-score (lipoamide; arsenate co-treatment: none): -0.204

Target: ZDHHC20 (UniProt Q5W0Z9)
- thermal stability z-score (potassium arsenate): 0.242
- thermal stability z-score (lipoamide; [1]): 0.527
- thermal stability z-score (lipoamide; arsenate co-treatment: none): 0.247

Target: TRIM4 (UniProt Q9C037)
- thermal stability z-score (potassium arsenate): -0.143
- thermal stability z-score (lipoamide; [1]): -0.218
- thermal stability z-score (lipoamide; arsenate co-treatment: none): 0.0313

Target: HSPA14 (UniProt Q0VDF9)
Sequence of UniProt Q0VDF9 (Q0VDF9 whole entry): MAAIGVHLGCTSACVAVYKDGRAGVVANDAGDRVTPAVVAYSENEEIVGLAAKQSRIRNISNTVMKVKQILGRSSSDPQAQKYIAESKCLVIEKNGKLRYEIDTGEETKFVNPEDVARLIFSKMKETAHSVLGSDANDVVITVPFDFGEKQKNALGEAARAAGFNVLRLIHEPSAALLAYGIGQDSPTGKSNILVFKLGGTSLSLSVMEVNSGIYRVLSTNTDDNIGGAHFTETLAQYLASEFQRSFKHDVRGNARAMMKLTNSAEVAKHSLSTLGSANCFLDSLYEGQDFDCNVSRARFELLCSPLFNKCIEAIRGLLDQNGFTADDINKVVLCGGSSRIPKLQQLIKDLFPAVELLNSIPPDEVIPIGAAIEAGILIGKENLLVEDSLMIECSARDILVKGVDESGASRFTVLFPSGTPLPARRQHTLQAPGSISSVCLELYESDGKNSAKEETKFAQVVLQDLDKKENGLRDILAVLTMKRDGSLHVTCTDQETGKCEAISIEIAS
- thermal stability z-score (potassium arsenate): 0.837
- thermal stability z-score (lipoamide; [1]): -0.553
- thermal stability z-score (lipoamide; arsenate co-treatment: none): -0.226

Target: HDLBP (UniProt Q00341)
Sequence of UniProt Q00341 (Q00341 whole entry): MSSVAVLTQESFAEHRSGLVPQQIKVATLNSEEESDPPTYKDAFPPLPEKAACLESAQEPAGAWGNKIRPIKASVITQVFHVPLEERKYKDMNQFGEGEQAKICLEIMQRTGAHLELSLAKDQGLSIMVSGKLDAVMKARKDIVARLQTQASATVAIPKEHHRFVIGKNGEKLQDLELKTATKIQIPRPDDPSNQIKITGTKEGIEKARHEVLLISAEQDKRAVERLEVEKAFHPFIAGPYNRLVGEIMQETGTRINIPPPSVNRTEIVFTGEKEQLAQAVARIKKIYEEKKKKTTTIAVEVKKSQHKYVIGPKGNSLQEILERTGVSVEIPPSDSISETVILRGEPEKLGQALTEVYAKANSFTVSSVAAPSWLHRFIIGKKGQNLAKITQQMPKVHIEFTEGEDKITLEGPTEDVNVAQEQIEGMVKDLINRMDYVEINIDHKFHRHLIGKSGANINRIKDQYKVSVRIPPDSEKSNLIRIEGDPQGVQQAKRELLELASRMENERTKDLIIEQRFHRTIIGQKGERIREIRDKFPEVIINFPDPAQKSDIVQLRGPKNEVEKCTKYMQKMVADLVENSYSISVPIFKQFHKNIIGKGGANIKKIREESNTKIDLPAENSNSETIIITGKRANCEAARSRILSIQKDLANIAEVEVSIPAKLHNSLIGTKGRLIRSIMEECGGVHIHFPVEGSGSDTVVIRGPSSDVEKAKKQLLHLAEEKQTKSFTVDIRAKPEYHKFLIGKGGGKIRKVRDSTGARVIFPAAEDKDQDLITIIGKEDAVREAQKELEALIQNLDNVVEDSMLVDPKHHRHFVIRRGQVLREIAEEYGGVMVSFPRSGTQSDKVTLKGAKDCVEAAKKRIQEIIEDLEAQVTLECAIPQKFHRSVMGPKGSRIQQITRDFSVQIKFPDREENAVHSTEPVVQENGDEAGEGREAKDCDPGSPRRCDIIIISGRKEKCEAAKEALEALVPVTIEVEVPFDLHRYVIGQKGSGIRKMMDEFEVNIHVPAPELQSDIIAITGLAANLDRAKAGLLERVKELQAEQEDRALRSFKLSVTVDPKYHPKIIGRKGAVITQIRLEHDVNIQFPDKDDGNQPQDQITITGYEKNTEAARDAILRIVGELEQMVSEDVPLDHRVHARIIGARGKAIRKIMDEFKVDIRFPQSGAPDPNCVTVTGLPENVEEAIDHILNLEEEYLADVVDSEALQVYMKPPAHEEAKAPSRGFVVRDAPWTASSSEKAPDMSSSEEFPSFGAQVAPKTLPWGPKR
- thermal stability z-score (potassium arsenate): -0.295
- thermal stability z-score (lipoamide; [1]): -0.35
- thermal stability z-score (lipoamide; arsenate co-treatment: none): 0.231

Target: BAG1 (UniProt Q99933)
Sequence of UniProt Q99933 (Q99933 whole entry): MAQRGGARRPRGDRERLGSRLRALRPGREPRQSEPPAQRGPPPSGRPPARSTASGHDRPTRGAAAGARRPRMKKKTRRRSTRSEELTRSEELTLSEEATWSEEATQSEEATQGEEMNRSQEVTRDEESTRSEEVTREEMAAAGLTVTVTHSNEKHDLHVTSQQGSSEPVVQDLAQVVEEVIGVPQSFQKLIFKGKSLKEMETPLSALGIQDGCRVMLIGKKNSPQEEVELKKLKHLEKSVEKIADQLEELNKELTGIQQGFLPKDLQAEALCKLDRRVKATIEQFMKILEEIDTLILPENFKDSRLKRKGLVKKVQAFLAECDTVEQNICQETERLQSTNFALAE
- thermal stability z-score (potassium arsenate): -0.464
- thermal stability z-score (lipoamide; [1]): -0.351
- thermal stability z-score (lipoamide; arsenate co-treatment: none): 0.0085

Target: MAP1LC3B2|MAP1LC3B
- thermal stability z-score (potassium arsenate): 0.485
- thermal stability z-score (lipoamide; [1]): 0.0751
- thermal stability z-score (lipoamide; arsenate co-treatment: none): 0.888

Target: YBX1 (UniProt P67809)
Sequence of UniProt P67809 (P67809 whole entry): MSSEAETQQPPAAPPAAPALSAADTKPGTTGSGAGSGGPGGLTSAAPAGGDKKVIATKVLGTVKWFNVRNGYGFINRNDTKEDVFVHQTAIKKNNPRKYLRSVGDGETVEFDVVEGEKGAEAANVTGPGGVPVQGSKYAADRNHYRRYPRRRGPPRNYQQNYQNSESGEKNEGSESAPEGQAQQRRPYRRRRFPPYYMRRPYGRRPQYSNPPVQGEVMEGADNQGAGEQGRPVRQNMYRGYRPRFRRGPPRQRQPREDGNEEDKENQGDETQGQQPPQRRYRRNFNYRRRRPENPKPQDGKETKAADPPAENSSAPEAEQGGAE
- thermal stability z-score (potassium arsenate): -0.894
- thermal stability z-score (lipoamide; [1]): -0.0518
- thermal stability z-score (lipoamide; arsenate co-treatment: none): -0.23

Target: ATE1 (UniProt O95260)
- thermal stability z-score (potassium arsenate): -2.08
- thermal stability z-score (lipoamide; [1]): 0.315
- thermal stability z-score (lipoamide; arsenate co-treatment: none): -0.209

Target: TBC1D4 (UniProt O60343)
- thermal stability z-score (potassium arsenate): 0.51
- thermal stability z-score (lipoamide; [1]): -0.14
- thermal stability z-score (lipoamide; arsenate co-treatment: none): 0.292
